“Also recorded” adds a separate entry of the source.
How the values were obtained:
AC cartilage = conditions: post-traumatic OA model, Jaswal et al.; cited from earlier work
[1] = tested on: bone marrow stromal cell-derived chondrocytes; conditions: cited from earlier work
[2] = tested on: chondrocyte hypertrophy and MMP13 expression; conditions: ex vivo and in vivo; cited from earlier work
TGFbeta signaling = assay: GDF11 injection into the knee joint of mice with established post-traumatic OA: TGFbeta signaling; type: in vivo, mouse; conditions: data of FIG. 13
Method: FIG. 13. Growth differentiation factor 11 (GDF11, see, e.g., NCBI Reference Sequence: NP_005802.1) competes with BMP9/10 for binding to BMP type II receptors ACVRIIA or ACVRIIB, thereby preventing the association of BMP type I receptor ALK1 with ACVRIIA/B and decreasing BMP signaling. […] We tested this hypothesis by locally injecting GDF11 (50 ng/dose) into the knee joint space at mice with established post-traumatic OA. (A) Experimental Outline (B) Safranin-O/Fast Green (SOFG) Staining of sagittal sections of the knee joint, femur (top) and tibia (bottom) for proteoglycan (cartilage; red) and bone (green) at week 8 after DMM or Sham surgery. Mice were treated with either GDF11, or Phosphate Buffered Saline (PBS) after received surgery (n=5/group). 4-Week DMM mice were sacrificed 4 weeks after surgery and received no treatment (n=6). AC damage indicated by dotted line. (C-D) Osteoarthritis Research Society International (OARSI) scoring of AC damage in the (C) medial tibial plateau and (D) medial femoral condyle in representative sections of each treatment at week 4 or 8 after surgery. All data are shown as mean bar+/−standard deviation *p<0.05. Data analysis performed was one-way ANOVA. Scale 250 uM. […]

[3] = tested on: articular cartilage of DMM mice; assay: DMM model of post-traumatic OA: Safranin-O/Fast Green staining and OARSI scoring of articular cartilage damage; type: in vivo, mouse; conditions: mice with established osteoarthritis, 50 ng/dose injected into knee joint space
Method: FIG. 13. Growth differentiation factor 11 (GDF11, see, e.g., NCBI Reference Sequence: NP_005802.1) competes with BMP9/10 for binding to BMP type II receptors ACVRIIA or ACVRIIB, thereby preventing the association of BMP type I receptor ALK1 with ACVRIIA/B and decreasing BMP signaling. […] We tested this hypothesis by locally injecting GDF11 (50 ng/dose) into the knee joint space at mice with established post-traumatic OA. (A) Experimental Outline (B) Safranin-O/Fast Green (SOFG) Staining of sagittal sections of the knee joint, femur (top) and tibia (bottom) for proteoglycan (cartilage; red) and bone (green) at week 8 after DMM or Sham surgery. Mice were treated with either GDF11, or Phosphate Buffered Saline (PBS) after received surgery (n=5/group). 4-Week DMM mice were sacrificed 4 weeks after surgery and received no treatment (n=6). AC damage indicated by dotted line. (C-D) Osteoarthritis Research Society International (OARSI) scoring of AC damage in the (C) medial tibial plateau and (D) medial femoral condyle in representative sections of each treatment at week 4 or 8 after surgery. All data are shown as mean bar+/−standard deviation *p<0.05. Data analysis performed was one-way ANOVA. Scale 250 uM.
Mice (C57BL/6J) were purchased from The Jackson Laboratory. All mice were housed on a 12-hour light/dark cycle with unrestricted access to standard mouse food and water. The DMM model of injury induced OA was performed on mice at 12 weeks of age by opening the joint capsule and transecting the medial meniscotibial ligament in the right knee, destabilizing the medial meniscus(48). A sham operation was performed on the left knee of each mouse by observing the medial meniscotibial ligament but not transecting it. Mice were administered carprofen 5 mg/kg (Zoetis; 1041283) subcutaneously 30 minutes prior to surgery, immediately post-surgery, and 24 hours post-surgery to minimize pain.
Treatments were initiated either 1 day after DMM surgery once a week for 8 weeks, or 1 month after DMM surgery twice a week for 4 weeks. Mice were sacrificed at 20 weeks of age (2 months after surgery). To understand the level of articular cartilage damage 1 month after DMM surgery, a cohort of mice was sacrificed at 16 weeks old (FIG. 4).
Knee joint samples were harvested and fixed in 4% Paraformaldehyde for 3 days, and subsequently decalcified in formic acid (Statlab; 1414-32) for 3 days and embedded in paraffin. Sagittal sections 7 micrometers in thickness were taken and stained using Safranin-O (Sigma-Aldrich; S8884-25G), fast green (Sigma-Aldrich; F7258-25G), and hematoxylin (Fisherbrand; 245-656) using a standard histology protocol. Images were taken with the Olympus BX60 brightfield microscope using a 10× objective lens. Representative sections throughout the medial and lateral portion of side were chosen for histological analysis, resulting in 5 sections being imaged for both portions of the joint.
The 10 total sections per joint chosen for histology received randomized sample numbers and were given to three independent researchers who scored the level of cartilage damage based on OARSI guidelines (84). OARSI scores were analyzed with Prism 9 Software (GraphPad) using two-way ANOVA and Tukey's multiple comparisons test post-hoc. Scoring was performed by at least three experienced investigators blinded to treatment/genotype. Scores were averaged for the medial tibial plateau, medial femoral condyle, lateral tibial plateau, and lateral femoral condyle for each sample.

c1ccc2c(-c3cnn4cc(-c5ccc(N6CCNCC6)cc5)cnc34)ccnc2c1 [LDN-193189]
protection of AC cartilage (AC cartilage): protective
chondrocyte hypertrophy / chondrogenic hypertrophic markers in vitro [1]: not able to prevent; also recorded: no reduction
chondrocyte hypertrophy and MMP13 expression [2]: prevented

B1: GDF11: GDF11 protein from Bio-techne/R&D, catalog 1958-GD, truncated active protein of 109 amino acids (protein, UniProt O95390 299-407, looked up)
Growth/differentiation factor …: NLGLDCDEHSSESRCCRYPLTVDFEAFGWDWIIAPKRYKANYCSGQCEYMFMQKYPHTHLVQQANPRGSAGPCCTPTKMSPINMLYFNDKQQIIYGKIPGMVVDRCGCS
modifications: Growth/differentiation factor 11
TGFbeta signaling (TGFbeta signaling): increase TGFbeta signaling
degeneration of articular cartilage [3]: attenuate the degeneration of articular cartilage

From patent US20260234217A1, “USE OF BMP RECEPTOR ALK1 INHIBITORS IN OSTEOARTHRITIS THERAPIES” (The Regents of the University of California, priority 2023, published 2026)
